Assay: Thermodynamic stability of the solid forms of compound (I)
Type: physicochemical
Details: compared with the other solid forms of compound (I)

Q: Which “thermodynamic stability among solid forms” value does the source give for `CC(C)(O)c1cc2nn(CCS(C)(=O)=O)cc2cc1NC(=O)c1cccc(C(F)(F)F)n1` [Polymorphic form B, N-{6-(2-Hydroxypropan-2-yl)-2-[2-(methylsulphonyl)ethyl]-2H-indazol-5-yl}-6-(trifluoromethyl)pyridine-2-carboxamide] here?
A: Its value is “thermodynamically stable form”.

Source: patent publication US10759758B2, “Polymorphic form of N-{6-(hydroxypropan-2-yl)-2-[2-(methylsulphonyl)ethyl]-2H-indazol-5-yl}-6-(trifluoromethyl)pyridine-2-carboxamide” (Bayer Pharma Aktiengesellschaft, priority 2016, dated 2020)
